From patent US11407721B2, “CIS-morpholinone and other compounds as MDM2 inhibitors for the treatment of cancer” (AMGEN INC., priority 2013, dated 2022) come the findings set out here.

Like-named read-outs stand apart in the source and are kept apart here.

Assay [1] has as its target interaction between HDM2 and p53 (GST-hMDM2 (1-188) / biotinylated-p53 (1-83)) (Homo sapiens (Human), UniProt Q00987). The assay is described as follows: HTRF2 Assay (improved HTRF assay). Format: binding. (Time-resolved FRET reads energy transfer from a long-lived donor to a nearby acceptor.)
For assay [2], the target named is T1, interaction between HDM2 and p53 (GST-hMDM2 / biotinylated-p53) (Homo sapiens (Human), UniProt Q00987). Particulars: read-out: HTRF3 IC50; HTRF1 conditions except 20 uL GST-hMDM2 incubated with 1.0 ul diluted compound.
The target in assay [3] is T1, interaction between HDM2 and p53 (GST-hMDM2 / biotinylated-p53). The assay can be described thus: biochemical.
Assay [4] concerns the target interaction between HDM2 and p53 (GST-hMDM2 aa 1-188 / biotinylated-p53 aa 1-83) (Homo sapiens (Human), UniProt Q00987).
Where [5] appears, read: 0.2 nM GST-hMDM2 (1-188), 0.5 nM biotinylated-p53 (1-83), 100 mM KF, read-out: HTRF2 IC50.

Chain of interaction between HDM2 and p53 (GST-hMDM2 aa 1-188 / biotinylated-p53 aa 1-83) (Q00987 1-188): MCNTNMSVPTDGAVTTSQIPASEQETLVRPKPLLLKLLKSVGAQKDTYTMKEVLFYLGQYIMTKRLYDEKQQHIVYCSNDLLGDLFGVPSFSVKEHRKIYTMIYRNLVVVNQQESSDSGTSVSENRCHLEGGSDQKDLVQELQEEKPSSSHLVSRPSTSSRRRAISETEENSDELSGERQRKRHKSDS
T1 sequence (Q00987 1-188): as above
Chain of interaction between HDM2 and p53 (GST-hMDM2 (1-188) / biotinylated-p53 (1-83)) (Q00987 1-188): as above

For orientation: IC50 means the concentration needed to halve the response being measured. In the case of `CN(C)C(=O)C[C@H]1O[C@H](c2cccc(Cl)c2)[C@H](c2ccc(Cl)cc2)N(CC2CC2)C1=O`, the values for the half-inhibitory concentration (IC50) in assay [1] (setting [5]) and in assay [2] were 7.56 µM and 2.78 µM, respectively.
In the same order, the values of `CS(=O)(=O)OCC[C@H]1O[C@H](c2cccc(Cl)c2)[C@H](c2ccc(Cl)cc2)N(CC2CC2)C1=O` are 4.81 µM and 6.86 µM.
For `CCC[C@H](C(=O)N1CCN(CCC(=O)O)CC1)N1C(=O)CO[C@@H](c2ccc(Cl)cc2)[C@H]1c1ccc(Cl)cc1`, the 50% inhibitory concentration (IC50) worked out at 3.6 µM in assay [1] (setting [5]) and 4.59 µM in assay [2].
In the same order, the values of `CN1C(=O)[C@@H](Cc2cccc(C(N)=O)c2)O[C@H](c2ccc(Cl)cc2)[C@@H]1c1ccc(Cl)cc1` are 7.39 µM and 12.4 µM.
`CN1C(=O)[C@@H](Cc2ccc(C(N)=O)cc2)O[C@H](c2ccc(Cl)cc2)[C@@H]1c1ccc(Cl)cc1`: the IC50 was determined as 3.66 µM in assay [1] (setting [5]) and 5.8 µM in assay [2].
Take `CN1C(=O)CO[C@@H](c2ccc(Cl)cc2)[C@H]1c1ccc(Cl)cc1` (mixture of isomers) [(5R,6S)-5,6-Bis(4-chlorophenyl)-4-methylmorpholin-3-one and (5S,6R)-5,6-bis(4-chlorophenyl)-4-methylmorpholin-3-one]: the IC50 in assay [3] stood at 38.6 µM; in assay [4], 11.8 µM.
For `CCC[C@H](C(=O)NCC(N)=O)N1C(=O)[C@H](Cc2ccc(C#N)cc2)O[C@@H](c2ccc(Cl)cc2)[C@H]1c1ccc(Cl)cc1` (racemic) [Example 34, (R)—N-(2-Amino-2-oxoethyl)-2-((2S,3R,6S)-2,3-bis(4-chlorophenyl)-6-(4-cyanobenzyl)-5-oxomorpholino)pentanamide and (S)—N-(2-amino-2-oxoethyl)-2-((2R,3S,6R)-2,3-bis(4-chlorophenyl)-6-(4-cyanobenzyl)-5-oxomorpholino)pentanamide], the IC50 in assay [1] (read-out: HTRF2 IC50) was 0.745 µM; in assay [3] it was 0.486 µM.
Consider `CCCC[C@H](C(=O)O)N1C(=O)CO[C@@H](c2ccc(Cl)cc2)[C@H]1c1ccc(Cl)cc1` [(2R)-2-((2S,3R)-2,3-bis(4-chlorophenyl)-5-oxo-4-morpholinyl)hexanoic acid], for which the half-inhibitory concentration (IC50) in assay [1] was 23.4 µM; in assay [3], 27.5 µM.
For `CCC[C@H](C(N)=O)N1C(=O)CO[C@@H](c2ccc(Cl)cc2)[C@H]1c1ccc(Cl)cc1` [(2R)-2-((2S,3R)-2,3-bis(4-chlorophenyl)-5-oxo-4-morpholinyl)pentanamide], the IC50 in assay [1] (setting [5]) came out at 4.29 µM; in assay [3] it was 3.19 µM.
The like results for `CCC[C@H](COC(N)=O)N1C(=O)CO[C@@H](c2ccc(Cl)cc2)[C@H]1c1ccc(Cl)cc1` [(2R)-2-((2S,3R)-2,3-bis(4-chlorophenyl)-5-oxo-4-morpholinyl)pentyl carbamate] were, in that order, 3.61 µM and 3.72 µM.
`CCC[C@H](C(=O)O)N1C(=O)[C@H](Cc2ccc(C#N)c(F)c2)O[C@@H](c2ccc(Cl)cc2)[C@H]1c1ccc(Cl)cc1` [(2R)-2-((2S,3R,6S)-2,3-bis(4-chlorophenyl)-6-(4-cyano-3-fluorobenzyl)-5-oxo-4-morpholinyl)pentanoic acid]: the IC50 in assay [1] was determined as 0.539 µM; in assay [3] it was 0.443 µM.
In the same order, the values of `CCC[C@H](C(=O)O)N1C(=O)[C@H](Cc2ccc(C#N)cc2)O[C@@H](c2ccc(Cl)cc2)[C@H]1c1ccc(Cl)cc1` [(2R)-2-((2S,3R,6S)-2,3-bis(4-chlorophenyl)-6-(4-cyanobenzyl)-5-oxo-4-morpholinyl)pentanoic acid] are 0.393 µM and 0.297 µM.
Regarding `C=CC[C@H]1O[C@H](c2ccc(Br)cc2)[C@H](c2ccc(Br)cc2)N(C)C1=O` [(2R,5S,6R)-5,6-bis(4-bromophenyl)-4-methyl-2-(2-propen-1-yl)-3-morpholinone], the 50% inhibitory concentration (IC50) stood at 25 µM in assay [1] (setting [5]) and 23.7 µM in assay [3].
The like results for `CN1C(=O)[C@@H](c2ccccc2)O[C@H](c2ccc(Br)cc2)[C@@H]1c1ccc(Br)cc1` [(2R,5S,6R)-5,6-bis(4-bromophenyl)-4-methyl-2-phenyl-3-morpholinone] were, in that order, 20 µM and 12.3 µM.
The like results for `C[C@@H]1O[C@@H](c2ccc(Br)cc2)[C@@H](c2ccc(Br)cc2)N(C)C1=O` [(2S,5R,6S)-5,6-bis(4-bromophenyl)-2,4-dimethyl-3-morpholinone] were, in that order, 22.7 µM and 23.2 µM.
As for `CCC[C@H](CN)N1C(=O)CO[C@@H](c2ccc(Cl)cc2)[C@H]1c1ccc(Cl)cc1` [(5R,6S)-4-((1R)-1-(aminomethyl)butyl)-5,6-bis(4-chlorophenyl)-3-morpholinone], the half-inhibitory concentration (IC50) stood at 6.09 µM in assay [1] (setting [5]) and 6.88 µM in assay [3].
Regarding `O=C1CO[C@@H](c2ccc(Cl)cc2)[C@@H](c2ccc(Cl)cc2)N1c1cccnc1` [(5R,6S)-5,6-bis(4-chlorophenyl)-4-(3-pyridinyl)-3-morpholinone], the concentration for half-maximal inhibition (IC50) in assay [1] (setting [5]) was 29.6 µM; in assay [3], 23.9 µM.
The like results for `O=C1CO[C@@H](c2ccc(Cl)cc2)[C@@H](c2ccc(Cl)cc2)N1c1ccncc1` [(5R,6S)-5,6-bis(4-chlorophenyl)-4-(4-pyridinyl)-3-morpholinone] were, in that order, 16.8 µM and 24.2 µM.
The like results for `O=C1CO[C@@H](c2ccc(Cl)cc2)[C@@H](c2ccc(Cl)cc2)N1c1ccccc1` [(5R,6S)-5,6-bis(4-chlorophenyl)-4-phenyl-3-morpholinone] were, in that order, 31.6 µM and over 100 µM.
Compound `CC(C)N1C(=O)CS(=O)(=O)[C@@H](c2cccc(Cl)c2)[C@H]1c1ccc(Cl)cc1` [(5R,6S)-6-(3-chlorophenyl)-5-(4-chlorophenyl)-4-(1-methylethyl)-3-thiomorpholinone 1,1-dioxide] registered an IC50 in assay [4] of 1.56 µM.
Take `O=C1CS(=O)(=O)[C@@H](c2cccc(Cl)c2)[C@@H](c2ccc(Cl)cc2)N1CC1CC1` [(5R,6S)-6-(3-chlorophenyl)-5-(4-chlorophenyl)-4-(cyclopropylmethyl)-3-thiomorpholinone 1,1-dioxide]: the 50% inhibitory concentration (IC50) in assay [1] (setting [5]) came out at 22.4 µM; in assay [4], 4.76 µM.
As to `O=C1CO[C@@H](c2cccc(Cl)c2)[C@@H](c2ccc(Cl)cc2)N1C1CCCC1` [(5R,6S)-6-(3-chlorophenyl)-5-(4-chlorophenyl)-4-cyclopentyl-3-morpholinone], the IC50 turned out to be 10 µM in assay [1] (setting [5]) and 16.6 µM in assay [3].
In the same order, the values of `CC(C)N1C(=O)CO[C@H](c2ccc(Br)cc2)[C@@H]1c1ccc(Br)cc1` [(5S,6R)-5,6-bis(4-bromophenyl)-4-(1-methylethyl)-3-morpholinone] are over 100 µM and 24.6 µM.
On to `CCC[C@H](c1nnn[nH]1)N1C(=O)[C@H](Cc2ccc(C#N)c(F)c2)O[C@@H](c2ccc(Cl)cc2)[C@H]1c1ccc(Cl)cc1` [Example 35, 4-(((2S,5R,6S)-4-((R)-1-(1H-Tetrazol-5-yl)butyl)-5,6-bis(4-chlorophenyl)-3-oxomorpholin-2-yl)methyl)-2-fluorobenzonitrile], for which the half-maximal inhibitory concentration (IC50) in assay [1] (setting [5]) came out at 0.473 µM; in assay [2] it was 0.403 µM.
Regarding `CCC[C@H](C(=O)NCC(=O)O)N1C(=O)[C@H](Cc2ccc(C#N)c(F)c2)O[C@@H](c2ccc(Cl)cc2)[C@H]1c1ccc(Cl)cc1` [N-((2R)-2-((2S,3R,6S)-2,3-bis(4-chlorophenyl)-6-(4-cyano-3-fluorobenzyl)-5-oxo-4-morpholinyl)pentanoyl)glycine], the IC50 in assay [1] was determined as 0.517 µM; in assay [3], 0.39 µM.
Regarding “(2R,5S,6R)-5,6-Bis(4-chlorophenyl)-4-methyl-2-(pyridin-4-ylmethyl)morpholin-3-one and (2S,5R,6S)-5,6-bis(4-chlorophenyl)-4-methyl-2-(pyridin-4-ylmethyl)morpholin-3-one [Example 41]”, the IC50 was 4.53 µM in assay [1] (setting [5]) and 5.6 µM in assay [2].
